Data on one compound can be found in patent publication US20100196194A1, “METHOD FOR S[…] WITH OZONE” (BRADFORD I[…], priority 2006, published 2010).

Experiment [1] deals with bacterial spores. Put plainly: relation between ozone concentration and time needed for sterilization of bacterial spore samples. The experiment is classed as cell-based. Conditions: ozone concentration 2-3 mgr/l (based on 1 atm), moisture content 60-80%. The protocol: Experimentally, the relation has been investigated between ozone concentration and the time needed for sterilization. A typical measurement procedure is as follows. A sample with bacterial spores is prepared, and exposed in the chamber 10 to an ozone-containing atmosphere with a specific temperature and air humidity, during a specific treatment time, after which the sample is removed from the chamber 10. […] Thus, a series of samples is treated, each time with different treatment times. To obtain a greater certainty, the measurements are repeated, which means that at a certain treatment time always multiple measurements are done with different samples.
The treated samples are subsequently placed in a conditioned breeding chamber, and it is monitored at which samples bacterial growth is and at which samples bacterial is not taking place. […]
The results obtained from the culture were correlated to the treatment times. For each value of the ozone concentration, it was assessed what the LONGEST treatment time was where bacterial growth was still observed: this treatment time was apparently insufficient to guarantee 100% elimination of the spores; this measurement point and all measurement points with shorter treatment times, in FIG. 2, are indicated with open circles. […]

In experiment [2] the test system is spores of the bacterium Bacillus Atrophaeus. Put plainly: sterilization of standard spore strips (10E6), growth check after 48 hours at 37° C. in tryptone soya broth. The experiment is classed as cell-based. From the text: The FIGS. 3A-3B illustrate another experiment, executed on spores of the bacterium Bacillus Atrophaeus (previously known as Bacillus subtilis var. niger); from all bacterial spores, the spores of this bacterium Bacillus Astrophaeus are the most resistant to ozone. Use was made of standard spore strips with the qualification 10E6; these are strips on which in the order of 10^6 bacterial spores have been deposited. The used strips were obtained from the company Etigam BV in Apeldoorn, Netherlands. According to statement of the supplier, these spores were obtained from the American Type Culture Collection (ATCC) 9372.
In this experiment, the spore strips were submitted to a sterilization process, wherein the ozone concentration, the degree of humidity and the treatment time were measured. The spore strips were removed from the sterilization chamber, and than were stored for 48 hours at a temperature of 37° C. in a test tube filled with tryptone soya broth (“tryptone Soya Broth”, TSB). TSB is a standard nutrition medium, obtainable at Tritium-Microbiologie BV in Veldhoven, Netherlands, type indication T406.24.0005.
Each time, four spore strips were treated simultaneously. After the storage time of 48 hours, for each spore strip it was investigated whether bacterial spores had grown. If visually no bacterial growth could be detected, it was assumed that all spores of the relevant spore strip had been killed. If visually bacterial growth could be detected, the relevant spore strip was qualified as “insufficiently sterilized”. The results are presented in the FIGS. 3A and 3B, wherein FIG. 3A relates to measurements at an ambient temperature of 20° C. during the sterilization process and FIG. 3B relates to measurements at an ambient temperature of 30° C. during the sterilization process. The horizontal axis in the figures represents the measured degree of humidity in percentages, the vertical axis represents the time integral of the ozone concentration, indicated as ∫[O3], in units of gr·s/l. In the area 131, 100% of the bacterial spores of all four the test strips were always killed. In the area 132, each time one spore strip was insufficiently sterilized. In the area 133, each time two spore strips were insufficiently sterilized. In the area 134, each time three or four spore strips were insufficiently sterilized. The rectangular areas that are cut away from the top left of the graphs are areas belonging to test strips that were not analyzed.

In the case of `O=[O+][O-]` [ozone], the “sterilization result in experimental set-up” value in experiment [1] was “good results”. Further, the “degree of humidity giving optimal sterilization result” value in experiment [2] (FIG. 3A, ambient temperature 20° C.) is on record as “approximately 80 % RH”. Moreover, the “effect of increasing the ambient temperature on sterilization” value in experiment [2] (ambient temperature increased to 30° C. (versus 20° C.)) was “favourable effect”. For the same compound, the “effect of increasing the degree of humidity on sterilization” value in experiment [2] (degree of humidity increased to 95%) is reported as “did not give clear improvement”. Also, in experiment [2] (less than 50% RH), the “sterilization at low degree of humidity” value is listed as “no good sterilization proved to be possible”. The “ozone performance equivalent OPEQ (minimum time integral of ozone concentration leading to 100% sterilization)” value in experiment [2] (worst case 60% RH and 20° C., valid at all humidity above 60% RH, at 20° C. and 30° C.) is listed as 15 gr·s/l.
